Measurements from patent US20230085307A1, “PYRIDAZINONE COMPOUND AND HERBICIDE” (NISSAN CHEMICAL CORPORATION, priority 2019, published 2023).

How the values were obtained:
late watergrass = test: Test Example 1: herbicidal activity, application before weed generation under submerged conditions (Table 16, symbol A); assay type: in vivo, late watergrass (Echinochloa oryzicola); settings: amount of applied herbicide 320 g/ha
Excerpt: (§1) [Test Example 1] Herbicidal Activity Test by Application before Weed Generation under Submerged Conditions After alluvial soil was placed into 1/10000 are of Wagner pot, water was poured and mixed to form a submerged condition having a water depth of 4 cm. Seeds of late watergrass, Japanese bulrush, and oval-leafed pondweed were sowed in a mixed manner in the aforementioned pot, and then 2.5 leaf stage rice plant seedlings were transplanted thereto. On the day of sowing seeds, the emulsion agent of the compound of the present invention prepared according to Formulation Example 2 was diluted with water so as to achieve a predetermined herbicide amount, and the diluted emulsion agent was applied to the surface of the water. The pot was placed in a greenhouse at 25° C. to 30° C. for growth of the plants. Three weeks after the herbicide application, the effect of the herbicide on each plant was evaluated according to the following criteria. Evaluation Criteria 5: Herbicidal rate of 90% or more (almost completely withered) 4: Herbicidal rate of 70% or more and less than 90% 3: Herbicidal rate of 40% or more and less than 70% 2: Herbicidal rate of 20% or more and less than 40% 1: Herbicidal rate of 5% or more and less than 20% 0: Herbicidal rate of 5% or less (almost no effect)

Japanese bulrush = test: Test Example 1: herbicidal activity, application before weed generation under submerged conditions (Table 16, symbol B); assay type: in vivo, Japanese bulrush (Schoenoplectus juncoides); settings: amount of applied herbicide 320 g/ha
Excerpt: as §1

barnyard grass [1] = test: Test Example 3: herbicidal effect by foliage application, Wagner pot (Table 18, symbol H); assay type: in vivo, barnyard grass (Echinochloa crus-galli); settings: 320 g/ha
Summary of the method: (§2)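 Plants were sown in alluvial soil held under 0.1–0.5 cm standing water and grown 14 days in a greenhouse at 25–30 °C. An emulsifiable formulation, water-diluted to the set dose, was then sprayed onto the foliage, and effects were scored three weeks later using previously defined criteria.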

Chinese sprangletop = test: Test Example 3: herbicidal effect by foliage application, Wagner pot (Table 18, symbol D); assay type: in vivo, chinese sprangletop (Leptochloa chinensis); settings: 320 g/ha
Summary of the method: as §2

rice flat sedge = test: Test Example 3: herbicidal effect by foliage application, Wagner pot (Table 18, symbol E); assay type: in vivo, rice flat sedge (Cyperus iria); settings: 320 g/ha
Summary of the method: as §2

southern crabgrass [2] = test: Test Example 4: herbicidal effect by soil treatment (Table 19, symbol F); assay type: in vivo, southern crabgrass (Digitaria ciliaris); settings: amount of applied herbicide 320 g/ha
Summary of the method: (§3)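 Seeds were sown in sterilized diluvial soil and covered with about 1.5 cm of soil. An emulsion formulation diluted with water to a predetermined herbicide amount was sprayed evenly onto the soil surface. Plants grew in a greenhouse at 25° C. to 30° C., and the effect was scored three weeks after application using criteria from an earlier test.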

green foxtail [3] = test: Test Example 4: herbicidal effect by soil treatment (Table 19, symbol G); assay type: in vivo, green foxtail (Setaria viridis); settings: amount of applied herbicide 320 g/ha
Summary of the method: as §3

barnyard grass [4] = test: Test Example 4: herbicidal effect by soil treatment (Table 19, symbol H); assay type: in vivo, barnyard grass (Echinochloa crus-galli); settings: amount of applied herbicide 320 g/ha
Summary of the method: as §3

wild oat [5] = test: Test Example 4: herbicidal effect by soil treatment (Table 19, symbol I); assay type: in vivo, wild oat (Avena fatua); settings: amount of applied herbicide 320 g/ha
Summary of the method: as §3

blackgrass [6] = test: Test Example 4: herbicidal effect by soil treatment (Table 19, symbol J); assay type: in vivo, blackgrass (Alopecurus myosuroides); settings: amount of applied herbicide 320 g/ha
Summary of the method: as §3

Italian ryegrass [7] = test: Test Example 4: herbicidal effect by soil treatment (Table 19, symbol K); assay type: in vivo, Italian ryegrass (Lolium multiflorum); settings: amount of applied herbicide 320 g/ha
Summary of the method: as §3

windgrass [8] = test: Test Example 4: herbicidal effect by soil treatment (Table 19, symbol L); assay type: in vivo, windgrass (Apera spica-venti); settings: amount of applied herbicide 320 g/ha
Summary of the method: as §3

velvetleaf [9] = test: Test Example 4: herbicidal effect by soil treatment (Table 19, symbol M); assay type: in vivo, velvetleaf (Abutilon theophrasti); settings: amount of applied herbicide 320 g/ha
Summary of the method: as §3

redroot pigweed [10] = test: Test Example 4: herbicidal effect by soil treatment (Table 19, symbol N); assay type: in vivo, redroot pigweed (Amaranthus retroflexus); settings: amount of applied herbicide 320 g/ha
Summary of the method: as §3

lambsquarters [11] = test: Test Example 4: herbicidal effect by soil treatment (Table 19, symbol O); assay type: in vivo, lambsquarters (Chenopodium album); settings: amount of applied herbicide 320 g/ha
Summary of the method: as §3

chickweed [12] = test: Test Example 4: herbicidal effect by soil treatment (Table 19, symbol P); assay type: in vivo, common chickweed (Stellaria media); settings: amount of applied herbicide 320 g/ha
Summary of the method: as §3

persian speedwell [13] = test: Test Example 4: herbicidal effect by soil treatment (Table 19, symbol R); assay type: in vivo, Persian speedwell (Veronica persica); settings: amount of applied herbicide 320 g/ha
Summary of the method: as §3

southern crabgrass [14] = test: Test Example 5: herbicidal effect by foliage application, plastic box (Table 20, symbol F); assay type: in vivo, southern crabgrass (Digitaria ciliaris)
Summary of the method: (§4)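 Plants sown in sterilized diluvial soil and grown 14 days in a greenhouse at 25° C to 30° C, then sprayed on the foliage with the compound's emulsion diluted in water to a predetermined herbicide amount. Injury to weeds and crops scored three weeks after application on a visual rating scale.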

green foxtail [15] = test: Test Example 5: herbicidal effect by foliage application, plastic box (Table 20, symbol G); assay type: in vivo, green foxtail (Setaria viridis)
Summary of the method: as §4

barnyard grass [16] = test: Test Example 5: herbicidal effect by foliage application, plastic box (Table 20, symbol H); assay type: in vivo, barnyard grass (Echinochloa crus-galli)
Summary of the method: as §4

wild oat [17] = test: Test Example 5: herbicidal effect by foliage application, plastic box (Table 20, symbol I); assay type: in vivo, wild oat (Avena fatua)
Summary of the method: as §4

blackgrass [18] = test: Test Example 5: herbicidal effect by foliage application, plastic box (Table 20, symbol J); assay type: in vivo, blackgrass (Alopecurus myosuroides)
Summary of the method: as §4

Italian ryegrass [19] = test: Test Example 5: herbicidal effect by foliage application, plastic box (Table 20, symbol K); assay type: in vivo, Italian ryegrass (Lolium multiflorum)
Summary of the method: as §4

windgrass [20] = test: Test Example 5: herbicidal effect by foliage application, plastic box (Table 20, symbol L); assay type: in vivo, windgrass (Apera spica-venti)
Summary of the method: as §4

velvetleaf [21] = test: Test Example 5: herbicidal effect by foliage application, plastic box (Table 20, symbol M); assay type: in vivo, velvetleaf (Abutilon theophrasti)
Summary of the method: as §4

redroot pigweed [22] = test: Test Example 5: herbicidal effect by foliage application, plastic box (Table 20, symbol N); assay type: in vivo, redroot pigweed (Amaranthus retroflexus)
Summary of the method: as §4

lambsquarters [23] = test: Test Example 5: herbicidal effect by foliage application, plastic box (Table 20, symbol O); assay type: in vivo, lambsquarters (Chenopodium album)
Summary of the method: as §4

chickweed [24] = test: Test Example 5: herbicidal effect by foliage application, plastic box (Table 20, symbol P); assay type: in vivo, common chickweed (Stellaria media)
Summary of the method: as §4

persian speedwell [25] = test: Test Example 5: herbicidal effect by foliage application, plastic box (Table 20, symbol R); assay type: in vivo, Persian speedwell (Veronica persica)
Summary of the method: as §4

[26] = foliage application, 320 g/ha, three weeks after application
[27] = amount of applied herbicide 320 g/ha, foliage application after 14-day growth, evaluated three weeks after application

COc1ccccc1-c1sc2cc(OS(=O)(=O)N(C)C)ccc2c1-c1c(O)c(C)nn(C)c1=O [3-134]
Herbicidal effect, A: late watergrass (late watergrass): 3 (Herbicidal rate of 40% or more and less than 70%)
Herbicidal effect, B: Japanese bulrush (Japanese bulrush): 4 (Herbicidal rate of 70% or more and less than 90%)
herbicidal effect on barnyard grass (H) (barnyard grass [1]): 3 (Herbicidal rate of 40% or more and less than 70%)
herbicidal effect on Chinese sprangletop (D) (Chinese sprangletop): 4 (Herbicidal rate of 70% or more and less than 90%)
herbicidal effect on rice flat sedge (E) (rice flat sedge): 3 (Herbicidal rate of 40% or more and less than 70%)
Herbicidal effect by soil treatment, F: southern crabgrass (southern crabgrass [2]): 0 (Herbicidal rate of 5% or less (almost no effect))
Herbicidal effect by soil treatment, G: green foxtail (green foxtail [3]): 0 (Herbicidal rate of 5% or less (almost no effect))
Herbicidal effect by soil treatment, H: barnyard grass (barnyard grass [4]): 0 (Herbicidal rate of 5% or less (almost no effect))
Herbicidal effect by soil treatment, I: wild oat (wild oat [5]): 0 (Herbicidal rate of 5% or less (almost no effect))
Herbicidal effect by soil treatment, J: blackgrass (blackgrass [6]): 4 (Herbicidal rate of 70% or more and less than 90%)
Herbicidal effect by soil treatment, K: Italian ryegrass (Italian ryegrass [7]): 4 (Herbicidal rate of 70% or more and less than 90%)
Herbicidal effect by soil treatment, L: windgrass (windgrass [8]): 5 (Herbicidal rate of 90% or more (almost completely withered))
Herbicidal effect by soil treatment, M: velvetleaf (velvetleaf [9]): 1 (Herbicidal rate of 5% or more and less than 20%)
Herbicidal effect by soil treatment, N: redroot pigweed (redroot pigweed [10]): 5 (Herbicidal rate of 90% or more (almost completely withered))
Herbicidal effect by soil treatment, O: lambsquarters (lambsquarters [11]): 3 (Herbicidal rate of 40% or more and less than 70%)
Herbicidal effect by soil treatment, P: chickweed (chickweed [12]): 1 (Herbicidal rate of 5% or more and less than 20%)
Herbicidal effect by soil treatment, R: persian speedwell (persian speedwell [13]): 3 (Herbicidal rate of 40% or more and less than 70%)
F: southern crabgrass, herbicidal effect grade (southern crabgrass [14]; [26]): 4 (Herbicidal rate of 70% or more and less than 90%)
G: green foxtail, herbicidal effect grade (green foxtail [15]; [26]): 3 (Herbicidal rate of 40% or more and less than 70%)
H: barnyard grass, herbicidal effect grade (barnyard grass [16]; [26]): 0 (Herbicidal rate of 5% or less (almost no effect))
I: wild oat, herbicidal effect grade (wild oat [17]; [26]): 2 (Herbicidal rate of 20% or more and less than 40%)
J: blackgrass, herbicidal effect grade (blackgrass [18]; [26]): 4 (Herbicidal rate of 70% or more and less than 90%)
K: Italian ryegrass, herbicidal effect grade (Italian ryegrass [19]; [26]): 4 (Herbicidal rate of 70% or more and less than 90%)
L: windgrass, herbicidal effect grade (windgrass [20]; [26]): 5 (Herbicidal rate of 90% or more (almost completely withered))
M: velvetleaf, herbicidal effect grade (velvetleaf [21]; [26]): 3 (Herbicidal rate of 40% or more and less than 70%)
N: redroot pigweed, herbicidal effect grade (redroot pigweed [22]; [26]): 4 (Herbicidal rate of 70% or more and less than 90%)
O: lambsquarters, herbicidal effect grade (lambsquarters [23]; [26]): 3 (Herbicidal rate of 40% or more and less than 70%)
P: chickweed, herbicidal effect grade (chickweed [24]; [26]): 5 (Herbicidal rate of 90% or more (almost completely withered))
R: persian speedwell, herbicidal effect grade (persian speedwell [25]; [26]): 5 (Herbicidal rate of 90% or more (almost completely withered))

Cc1nn(C)c(=O)c(-c2c(-c3ccc4c(c3)OCO4)sc3cc(F)c(F)cc23)c1O [5-035]
herbicidal effect on barnyard grass (H) (barnyard grass [1]): 4 (Herbicidal rate of 70% or more and less than 90%)
herbicidal effect on Chinese sprangletop (D) (Chinese sprangletop): 3 (Herbicidal rate of 40% or more and less than 70%)
herbicidal effect on rice flat sedge (E) (rice flat sedge): 3 (Herbicidal rate of 40% or more and less than 70%)
F: southern crabgrass, herbicidal effect grade (southern crabgrass [2]): 1 (Herbicidal rate of 5% or more and less than 20%)
G: green foxtail, herbicidal effect grade (green foxtail [3]): 2 (Herbicidal rate of 20% or more and less than 40%)
H: barnyard grass, herbicidal effect grade (barnyard grass [4]): 3 (Herbicidal rate of 40% or more and less than 70%)
I: wild oat, herbicidal effect grade (wild oat [5]): 0 (Herbicidal rate of 5% or less (almost no effect))
J: blackgrass, herbicidal effect grade (blackgrass [6]): 0 (Herbicidal rate of 5% or less (almost no effect))
K: Italian ryegrass, herbicidal effect grade (Italian ryegrass [7]): 0 (Herbicidal rate of 5% or less (almost no effect))
L: windgrass, herbicidal effect grade (windgrass [8]): 0 (Herbicidal rate of 5% or less (almost no effect))
M: velvetleaf, herbicidal effect grade (velvetleaf [9]): 0 (Herbicidal rate of 5% or less (almost no effect))
N: redroot pigweed, herbicidal effect grade (redroot pigweed [10]): 1 (Herbicidal rate of 5% or more and less than 20%)
O: lambsquarters, herbicidal effect grade (lambsquarters [11]): 3 (Herbicidal rate of 40% or more and less than 70%)
P: chickweed, herbicidal effect grade (chickweed [12]): 1 (Herbicidal rate of 5% or more and less than 20%)
R: persian speedwell, herbicidal effect grade (persian speedwell [13]): 5 (Herbicidal rate of 90% or more (almost completely withered))
Herbicidal effect by foliage application, F: southern crabgrass (southern crabgrass [14]; [27]): 1 (Herbicidal rate of 5% or more and less than 20%)
Herbicidal effect by foliage application, G: green foxtail (green foxtail [15]; [27]): 0 (Herbicidal rate of 5% or less (almost no effect))
Herbicidal effect by foliage application, H: barnyard grass (barnyard grass [16]; [27]): 2 (Herbicidal rate of 20% or more and less than 40%)
Herbicidal effect by foliage application, I: wild oat (wild oat [17]; [27]): 0 (Herbicidal rate of 5% or less (almost no effect))
Herbicidal effect by foliage application, J: blackgrass (blackgrass [18]; [27]): 0 (Herbicidal rate of 5% or less (almost no effect))
Herbicidal effect by foliage application, K: Italian ryegrass (Italian ryegrass [19]; [27]): 0 (Herbicidal rate of 5% or less (almost no effect))
Herbicidal effect by foliage application, L: windgrass (windgrass [20]; [27]): 5 (Herbicidal rate of 90% or more (almost completely withered))
Herbicidal effect by foliage application, M: velvetleaf (velvetleaf [21]; [27]): 5 (Herbicidal rate of 90% or more (almost completely withered))
Herbicidal effect by foliage application, N: redroot pigweed (redroot pigweed [22]; [27]): 5 (Herbicidal rate of 90% or more (almost completely withered))
Herbicidal effect by foliage application, O: lambsquarters (lambsquarters [23]; [27]): 5 (Herbicidal rate of 90% or more (almost completely withered))
Herbicidal effect by foliage application, P: chickweed (chickweed [24]; [27]): 5 (Herbicidal rate of 90% or more (almost completely withered))
Herbicidal effect by foliage application, R: persian speedwell (persian speedwell [25]; [27]): 5 (Herbicidal rate of 90% or more (almost completely withered))
